“And” between values parts separate entries of the source, which are not always exact repeats. Equal entries are not always repeated.
Experiments:
Assay in all cases: PDSP GPCR panel primary binding assays at 10 μM
[1] = molecular target: T1, cloned human or rodent CNS receptors, channels, and transporters (PDSP panel) (Homo sapiens, UniProt P25021); settings: primary assay
T1 construct: expressed in transfected cells
Summary of the method: (§1)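 Competition binding with radiolabeled standard ligands, single 10 μM concentration, four replicates. Targets showing over 50% displacement were followed up with 11-point titrations in triplicate.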

[2] = molecular target: T2, cloned human or rodent CNS receptors, channels, and transporters (PDSP panel) (Homo sapiens, UniProt P35462); settings: primary assay
T2 construct: expressed in transfected cells
T2 sequence (P35462 whole entry): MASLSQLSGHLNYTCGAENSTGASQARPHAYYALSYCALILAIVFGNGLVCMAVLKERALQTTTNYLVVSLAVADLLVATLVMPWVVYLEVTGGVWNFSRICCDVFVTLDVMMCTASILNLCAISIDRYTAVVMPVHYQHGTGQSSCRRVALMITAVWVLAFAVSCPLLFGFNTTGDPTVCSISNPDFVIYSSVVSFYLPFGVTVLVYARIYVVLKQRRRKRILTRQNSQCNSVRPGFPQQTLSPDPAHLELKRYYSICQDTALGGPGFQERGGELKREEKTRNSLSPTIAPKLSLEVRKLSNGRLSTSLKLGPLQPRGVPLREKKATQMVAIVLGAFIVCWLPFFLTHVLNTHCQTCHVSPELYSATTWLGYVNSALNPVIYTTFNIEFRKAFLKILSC
Summary of the method: as §1

[3] = molecular target: T3, cloned human or rodent CNS receptors, channels, and transporters (PDSP panel) (Homo sapiens, UniProt P41145); settings: primary assay
T3 construct: expressed in transfected cells
T3 sequence (P41145 whole entry): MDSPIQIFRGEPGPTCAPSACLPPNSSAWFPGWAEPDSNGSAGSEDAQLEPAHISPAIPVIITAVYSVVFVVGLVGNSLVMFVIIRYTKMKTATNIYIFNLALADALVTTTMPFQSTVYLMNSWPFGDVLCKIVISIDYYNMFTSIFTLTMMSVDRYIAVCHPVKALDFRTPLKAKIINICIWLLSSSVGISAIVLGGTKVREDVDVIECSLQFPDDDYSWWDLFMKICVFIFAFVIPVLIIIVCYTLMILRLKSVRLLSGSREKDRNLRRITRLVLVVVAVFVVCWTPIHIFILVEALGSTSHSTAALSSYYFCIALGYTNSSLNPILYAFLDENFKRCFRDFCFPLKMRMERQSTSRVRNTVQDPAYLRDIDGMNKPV
Summary of the method: as §1

[4] = molecular target: T4, cloned human or rodent CNS receptors, channels, and transporters (PDSP panel) (Homo sapiens, UniProt P46098); settings: primary assay
T4 construct: expressed in transfected cells
T4 sequence (P46098 24-478): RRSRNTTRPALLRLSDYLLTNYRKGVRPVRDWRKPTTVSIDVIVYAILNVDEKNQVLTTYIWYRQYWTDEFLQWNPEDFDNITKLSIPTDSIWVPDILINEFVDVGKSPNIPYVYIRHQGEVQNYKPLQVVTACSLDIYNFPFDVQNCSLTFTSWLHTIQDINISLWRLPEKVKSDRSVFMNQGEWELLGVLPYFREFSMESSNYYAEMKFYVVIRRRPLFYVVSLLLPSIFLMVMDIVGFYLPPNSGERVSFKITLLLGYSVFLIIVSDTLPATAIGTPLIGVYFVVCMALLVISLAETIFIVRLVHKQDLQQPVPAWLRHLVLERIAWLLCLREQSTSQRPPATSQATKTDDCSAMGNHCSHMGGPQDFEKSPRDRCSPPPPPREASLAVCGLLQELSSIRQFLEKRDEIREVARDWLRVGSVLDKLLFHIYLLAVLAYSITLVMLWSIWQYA
Summary of the method: as §1

[5] = molecular target: T5, cloned human or rodent CNS receptors, channels, and transporters (PDSP panel) (Homo sapiens, UniProt P28223); settings: primary assay
T5 construct: expressed in transfected cells
T5 sequence (P28223 whole entry): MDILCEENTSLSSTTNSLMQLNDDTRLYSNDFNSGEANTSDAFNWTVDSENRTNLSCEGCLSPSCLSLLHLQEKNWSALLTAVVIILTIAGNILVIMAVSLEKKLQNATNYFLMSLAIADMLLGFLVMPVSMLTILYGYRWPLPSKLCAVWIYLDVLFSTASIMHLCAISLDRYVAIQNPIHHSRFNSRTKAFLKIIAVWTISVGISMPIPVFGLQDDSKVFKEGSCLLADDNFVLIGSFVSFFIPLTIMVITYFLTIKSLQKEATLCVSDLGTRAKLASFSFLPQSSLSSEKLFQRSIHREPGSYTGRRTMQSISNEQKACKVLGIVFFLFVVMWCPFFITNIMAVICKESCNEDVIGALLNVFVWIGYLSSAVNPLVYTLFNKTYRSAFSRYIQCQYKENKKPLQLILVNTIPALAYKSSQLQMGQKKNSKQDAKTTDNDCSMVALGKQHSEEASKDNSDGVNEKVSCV
Summary of the method: as §1

[6] = molecular target: T6, cloned human or rodent CNS receptors, channels, and transporters (PDSP panel) (Homo sapiens, UniProt P11229); settings: primary assay
T6 construct: expressed in transfected cells
T6 sequence (P11229 1-460): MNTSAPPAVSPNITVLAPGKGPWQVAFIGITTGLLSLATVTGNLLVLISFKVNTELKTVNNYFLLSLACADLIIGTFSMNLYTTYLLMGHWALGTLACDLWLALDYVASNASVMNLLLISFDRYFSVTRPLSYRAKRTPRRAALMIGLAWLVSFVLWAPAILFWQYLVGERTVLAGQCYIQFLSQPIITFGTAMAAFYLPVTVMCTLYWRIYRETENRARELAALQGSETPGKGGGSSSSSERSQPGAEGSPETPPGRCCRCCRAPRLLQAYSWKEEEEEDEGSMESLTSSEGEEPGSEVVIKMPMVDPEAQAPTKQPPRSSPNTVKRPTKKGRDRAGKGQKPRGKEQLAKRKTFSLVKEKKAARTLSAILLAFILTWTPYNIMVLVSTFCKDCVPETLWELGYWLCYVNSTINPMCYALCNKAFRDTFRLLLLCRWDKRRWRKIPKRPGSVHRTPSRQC
Summary of the method: as §1

[7] = molecular target: T7, cloned human or rodent CNS receptors, channels, and transporters (PDSP panel) (Rattus norvegicus, UniProt P16257); settings: primary assay; for Mean %: mean inhibition; for Inhibition 1: replicate 1; for Inhibition 2: replicate 2; for Inhibition 3: replicate 3
T7 construct: expressed in transfected cells
Summary of the method: as §1

[8] = molecular target: T8, cloned human or rodent CNS receptors, channels, and transporters (PDSP panel) (Homo sapiens, UniProt P21917); settings: primary assay
T8 construct: expressed in transfected cells
T8 sequence (P21917 1-419): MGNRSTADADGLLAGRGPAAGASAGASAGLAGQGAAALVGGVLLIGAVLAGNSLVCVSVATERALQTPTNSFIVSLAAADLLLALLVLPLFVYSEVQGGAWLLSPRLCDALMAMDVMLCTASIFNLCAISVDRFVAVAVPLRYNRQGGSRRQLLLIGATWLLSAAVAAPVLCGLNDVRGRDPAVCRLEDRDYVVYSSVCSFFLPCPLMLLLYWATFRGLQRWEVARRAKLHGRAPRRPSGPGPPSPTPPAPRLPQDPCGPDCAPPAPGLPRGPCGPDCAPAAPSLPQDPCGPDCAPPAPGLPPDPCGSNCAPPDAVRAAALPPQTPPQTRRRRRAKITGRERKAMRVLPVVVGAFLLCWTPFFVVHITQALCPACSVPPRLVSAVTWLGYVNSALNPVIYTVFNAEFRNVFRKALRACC
Summary of the method: as §1

T1 sequence (P25021 whole entry): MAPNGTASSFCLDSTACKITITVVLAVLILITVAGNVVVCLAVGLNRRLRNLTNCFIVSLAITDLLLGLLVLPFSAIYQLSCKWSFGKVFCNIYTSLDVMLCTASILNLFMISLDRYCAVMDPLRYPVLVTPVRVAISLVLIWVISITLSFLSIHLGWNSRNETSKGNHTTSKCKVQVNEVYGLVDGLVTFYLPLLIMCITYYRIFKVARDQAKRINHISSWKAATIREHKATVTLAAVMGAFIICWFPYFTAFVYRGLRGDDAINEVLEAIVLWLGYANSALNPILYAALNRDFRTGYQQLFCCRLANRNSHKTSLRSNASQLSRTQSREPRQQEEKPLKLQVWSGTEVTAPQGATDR

Structure (SMILES): CNc1nc(C)nc(N[C@H]2CCC[C@@H](C(=O)NCc3ccc(C#N)cc3C(F)(F)F)C2)n1 [UNC10302679A, GSK2256294A]
- Mean % ([1]; H2, mean inhibition): -21%
- Inhibition 1 ([1]; H2, replicate 1): -8.72%
- Inhibition 2 ([1]; H2, replicate 2): -33.49%
- Inhibition 3 ([1]; H2, replicate 3): -19.51%
- Inhibition 4 ([1]; H2, replicate 4): -22.27%
- Mean % ([2]; D3, mean inhibition): -12.51%
- Inhibition 1 ([2]; D3, replicate 1): -10.05%
- Inhibition 2 ([2]; D3, replicate 2): -18.34%
- Inhibition 3 ([2]; D3, replicate 3): -11.4%
- Inhibition 4 ([2]; D3, replicate 4): -10.24%
- Mean % ([3]; KOR, mean inhibition): -10.86%
- Inhibition 1 ([3]; KOR, replicate 1): -18.36%
- Inhibition 2 ([3]; KOR, replicate 2): -17.69%
- Inhibition 3 ([3]; KOR, replicate 3): 0.34%
- Inhibition 4 ([3]; KOR, replicate 4): -7.72%
- Mean % ([4]; 5-HT3, mean inhibition): 8.2%
- Inhibition 1 ([4]; 5-HT3, replicate 1): 4.04%
- Inhibition 2 ([4]; 5-HT3, replicate 2): 9.4%
- Inhibition 3 ([4]; 5-HT3, replicate 3): -1.71%
- Inhibition 4 ([4]; 5-HT3, replicate 4): 21.06%
- Mean % ([5]; 5-HT2A, mean inhibition): -5.29%
- Inhibition 1 ([5]; 5-HT2A, replicate 1): 5.24%
- Inhibition 2 ([5]; 5-HT2A, replicate 2): -8.74%
- Inhibition 3 ([5]; 5-HT2A, replicate 3): -13.01%
- Inhibition 4 ([5]; 5-HT2A, replicate 4): -4.63%
- Mean % ([6]; M1, mean inhibition): -5.74%
- Inhibition 1 ([6]; M1, replicate 1): 6.11%
- Inhibition 2 ([6]; M1, replicate 2): -4.99%
- Inhibition 3 ([6]; M1, replicate 3): -11.01%
- Inhibition 4 ([6]; M1, replicate 4): -13.08%
- Mean % ([7]; PBR): 61.99% and 50.52%
- Inhibition 1 ([7]; PBR): 64.51% and 57.62%
- Inhibition 2 ([7]; PBR): 61.79% and 51.24%
- Inhibition 3 ([7]; PBR): 61.7% and 45.98%
- Inhibition 4 ([7]; PBR, replicate 4): 59.94% and 47.25%
- Mean % ([8]; D4, mean inhibition): 2.7%
- Inhibition 1 ([8]; D4, replicate 1): 2.1%
- Inhibition 2 ([8]; D4, replicate 2): -2.96%
- Inhibition 3 ([8]; D4, replicate 3): 3.54%
- Inhibition 4 ([8]; D4, replicate 4): 8.13%

Structure (SMILES): CCCCNc1ncc2c(-c3ccc(CN4CCN(C)CC4)cc3)cn([C@H]3CC[C@H](O)CC3)c2n1 [UNC2025C, UNC2025]
- Inhibition 1 ([1]; Receptor H2, 10 μM): 36.84%
- Inhibition 2 ([1]; Receptor H2, 10 μM): 35.2%
- Inhibition 3 ([1]; Receptor H2, 10 μM): 22.04%
- Inhibition 4 ([1]; Receptor H2, 10 μM): 12.62%
- Mean % ([1]; Receptor H2, 10 μM, mean of Inhibition 1-4): 26.68%
- Inhibition 1 ([2]; Receptor D3, 10 μM): 18.68%
- Inhibition 2 ([2]; Receptor D3, 10 μM): 25.04%
- Inhibition 3 ([2]; Receptor D3, 10 μM): 10.39%
- Inhibition 4 ([2]; Receptor D3, 10 μM): 7.11%
- Mean % ([2]; Receptor D3, 10 μM, mean of Inhibition 1-4): 15.31%
- Inhibition 1 ([3]; Receptor KOR, 10 μM): -17.91%
- Inhibition 2 ([3]; Receptor KOR, 10 μM): -11.2%
- Inhibition 3 ([3]; Receptor KOR, 10 μM): -40.41%
- Inhibition 4 ([3]; Receptor KOR, 10 μM): -19.03%
- Mean % ([3]; Receptor KOR, 10 μM, mean of Inhibition 1-4): -22.14%
- Inhibition 1 ([4]; Receptor 5-HT3, 10 μM): 11.35%
- Inhibition 2 ([4]; Receptor 5-HT3, 10 μM): 35.98%
- Inhibition 3 ([4]; Receptor 5-HT3, 10 μM): 21.68%
- Inhibition 4 ([4]; Receptor 5-HT3, 10 μM): 26.58%
- Mean % ([4]; Receptor 5-HT3, 10 μM, mean of Inhibition 1-4): 23.9%
- Inhibition 1 ([5]; Receptor 5-HT2A, 10 μM): 90.4%
- Inhibition 2 ([5]; Receptor 5-HT2A, 10 μM): 85.14%
- Inhibition 3 ([5]; Receptor 5-HT2A, 10 μM): 80.37%
- Inhibition 4 ([5]; Receptor 5-HT2A, 10 μM): 89.25%
- Mean % ([5]; Receptor 5-HT2A, 10 μM, mean of Inhibition 1-4): 86.29%
- Inhibition 1 ([6]; Receptor M1, 10 μM): 58.8%
- Inhibition 2 ([6]; Receptor M1, 10 μM): 42.24%
- Inhibition 3 ([6]; Receptor M1, 10 μM): 30.2%
- Inhibition 4 ([6]; Receptor M1, 10 μM): 36.41%
- Mean % ([6]; Receptor M1, 10 μM, mean of Inhibition 1-4): 41.91%
- Inhibition 4 ([7]; Receptor PBR, 10 μM): 12.81% and 23.25%
- Inhibition 1 ([8]; Receptor D4, 10 μM): 1.91%
- Inhibition 2 ([8]; Receptor D4, 10 μM): -16.35%
- Inhibition 3 ([8]; Receptor D4, 10 μM): 0.67%
- Inhibition 4 ([8]; Receptor D4, 10 μM): 12.24%
- Mean % ([8]; Receptor D4, 10 μM, mean of Inhibition 1-4): -0.38%

Structure (SMILES): CCC(=O)N1CCC(NC(=O)Nc2ccc(OC(F)(F)F)cc2)CC1 [UNC10302681A, TPPU]
- Mean % ([1]; H2, mean inhibition): -16.74%
- Inhibition 1 ([1]; H2, replicate 1): -3.12%
- Inhibition 2 ([1]; H2, replicate 2): -11.73%
- Inhibition 3 ([1]; H2, replicate 3): -19.51%
- Inhibition 4 ([1]; H2, replicate 4): -32.59%
- Mean % ([2]; D3, mean inhibition): -4.85%
- Inhibition 1 ([2]; D3, replicate 1): -1.18%
- Inhibition 2 ([2]; D3, replicate 2): -5.62%
- Inhibition 3 ([2]; D3, replicate 3): -5.04%
- Inhibition 4 ([2]; D3, replicate 4): -7.54%
- Mean % ([3]; KOR, mean inhibition): -14.38%
- Inhibition 1 ([3]; KOR, replicate 1): -11.64%
- Inhibition 2 ([3]; KOR, replicate 2): -17.46%
- Inhibition 3 ([3]; KOR, replicate 3): -11.75%
- Inhibition 4 ([3]; KOR, replicate 4): -16.68%
- Mean % ([4]; 5-HT3, mean inhibition): 17.23%
- Inhibition 1 ([4]; 5-HT3, replicate 1): 6.76%
- Inhibition 2 ([4]; 5-HT3, replicate 2): 16.16%
- Inhibition 3 ([4]; 5-HT3, replicate 3): 12.2%
- Inhibition 4 ([4]; 5-HT3, replicate 4): 33.8%
- Mean % ([5]; 5-HT2A, mean inhibition): -2.37%
- Inhibition 1 ([5]; 5-HT2A, replicate 1): 0.31%
- Inhibition 2 ([5]; 5-HT2A, replicate 2): -4.96%
- Inhibition 3 ([5]; 5-HT2A, replicate 3): -8.74%
- Inhibition 4 ([5]; 5-HT2A, replicate 4): 3.92%
- Mean % ([6]; M1, mean inhibition): -5.22%
- Inhibition 1 ([6]; M1, replicate 1): 4.61%
- Inhibition 2 ([6]; M1, replicate 2): -16.27%
- Inhibition 3 ([6]; M1, replicate 3): -3.29%
- Inhibition 4 ([6]; M1, replicate 4): -5.93%
- Mean % ([7]; PBR): 4.31% and 5.42%
- Inhibition 1 ([7]; PBR): 20.73% and 18.86%
- Inhibition 2 ([7]; PBR): -4.07% and -6.82%
- Inhibition 3 ([7]; PBR): -2.57% and 2.75%
- Inhibition 4 ([7]; PBR, replicate 4): 3.14% and 6.9%
- Mean % ([8]; D4, mean inhibition): 5.93%
- Inhibition 1 ([8]; D4, replicate 1): 5.07%
- Inhibition 2 ([8]; D4, replicate 2): 3.44%
- Inhibition 3 ([8]; D4, replicate 3): 0%
- Inhibition 4 ([8]; D4, replicate 4): 15.2%
